Assay results reported in ChEMBL document CHEMBL1143644, “Synthesis and biological activities of novel aryl indole-2-carboxylic acid analogs as PPARgamma partial agonists” (Bioorg Med Chem Lett, 2005).
pEC50, pIC50: −log10 of the molar value.

Key:
[1] = biological target: T1, Peroxisome proliferator-activated receptor alpha (Homo sapiens, UniProt Q07869); test: Inhibitory concentration against human peroxisome proliferator activated receptor alpha in SPA assay
T1 sequence (Q07869 whole entry): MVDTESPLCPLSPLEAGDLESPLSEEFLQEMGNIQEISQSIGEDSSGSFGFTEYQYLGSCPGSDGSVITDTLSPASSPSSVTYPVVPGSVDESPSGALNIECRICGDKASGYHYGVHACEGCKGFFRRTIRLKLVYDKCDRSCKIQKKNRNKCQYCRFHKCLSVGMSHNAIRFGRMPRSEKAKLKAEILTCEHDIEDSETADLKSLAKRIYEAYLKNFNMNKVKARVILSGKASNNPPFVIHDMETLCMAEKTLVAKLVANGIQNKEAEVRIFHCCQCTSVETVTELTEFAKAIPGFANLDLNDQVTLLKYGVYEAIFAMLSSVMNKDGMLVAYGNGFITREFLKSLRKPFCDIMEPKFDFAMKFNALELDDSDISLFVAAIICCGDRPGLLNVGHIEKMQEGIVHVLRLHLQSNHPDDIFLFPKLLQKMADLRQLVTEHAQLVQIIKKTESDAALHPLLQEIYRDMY

[2] = biological target: T2, Peroxisome proliferator-activated receptor gamma (Homo sapiens, UniProt P37231); test: Effective agonist concentration for human PPAR gamma Gal4 construct in transactivation assay; assay type: functional
T2 sequence (P37231 whole entry): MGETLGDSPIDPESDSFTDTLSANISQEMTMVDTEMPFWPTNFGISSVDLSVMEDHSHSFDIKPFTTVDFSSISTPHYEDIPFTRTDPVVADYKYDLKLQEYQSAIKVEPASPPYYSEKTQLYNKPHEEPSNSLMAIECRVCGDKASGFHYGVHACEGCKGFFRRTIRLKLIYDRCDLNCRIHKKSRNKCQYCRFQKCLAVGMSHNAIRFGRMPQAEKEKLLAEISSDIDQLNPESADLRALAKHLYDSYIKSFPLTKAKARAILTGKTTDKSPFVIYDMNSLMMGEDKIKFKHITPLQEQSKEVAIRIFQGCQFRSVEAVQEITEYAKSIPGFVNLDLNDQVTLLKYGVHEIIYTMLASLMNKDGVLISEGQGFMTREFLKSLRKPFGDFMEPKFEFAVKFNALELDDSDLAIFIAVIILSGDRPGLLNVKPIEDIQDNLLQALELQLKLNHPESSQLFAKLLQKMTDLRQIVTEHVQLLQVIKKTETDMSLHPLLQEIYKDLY

[3] = biological target: T2, Peroxisome proliferator-activated receptor gamma
Description: Inhibitory concentration against human peroxisome proliferator activated receptor gamma in SPA assay

[4] = Area under curve at normal dose was determined; assay type: ADME
[5] = Bioavailability; assay type: ADME, organism-based; settings: eutheria, in vivo
[6] = Half life at normal dose was determined; assay type: ADME

CC(C)(C)c1ccc(-n2c(C(=O)O)c(Oc3cccc(C(F)(F)F)c3)c3cc(Cl)ccc32)cc1 showed a pIC50 [1] of under 4.82, a pEC50 [2] of 6.87 and a pIC50 [3] of 7.77.
For CC(C)(C)c1ccc(-n2c(C(=O)O)c(Oc3cccc(C(F)(F)F)c3)c3cc(Oc4cc(Cl)c[nH]4)ccc32)cc1, the pIC50 [1] was under 4.82, the AUC [4] was 0.3 µM·h and the bioavailability [5] was 9.8%. The pEC50 [2] was 8.70, the pIC50 [3] was 8.70 and the half-life [6] was 108 min.
Work on CCOc1ccc2c(c1)c(Oc1cccc(C(F)(F)F)c1)c(C(=O)O)n2-c1ccc(C(C)(C)C)cc1 yielded a pIC50 [1] of 5.20, a pEC50 [2] of 7.47 and a pIC50 [3] of 7.74.
Work on CC(C)(C)c1ccc(-n2c(C(=O)O)c(Oc3cccc(C(F)(F)F)c3)c3cccnc32)cc1 yielded a pIC50 [1] of under 4.30, a pEC50 [2] of 6.33 and a pIC50 [3] of 7.12.
With O=C(O)c1c(Sc2ccccc2)c2cc(Cl)ccc2n1Cc1ccc(Cl)cc1 the pIC50 [1] was under 4.82.
COc1ccc(-n2c(C(=O)O)c(Oc3cccc(C(F)(F)F)c3)c3ccccc32)cc1 showed a pIC50 [1] of under 4.30, a pEC50 [2] of 6.48 and a pIC50 [3] of 6.94.
CC(C)(C)c1ccc(-n2c(C(=O)O)c(Oc3cccc(C(F)(F)F)c3)c3cc(O)ccc32)cc1 showed a pIC50 [1] of under 4.30 and a pIC50 [3] of 6.50.
With CC(C)COc1ccc2c(c1)c(Oc1cccc(C(F)(F)F)c1)c(C(=O)O)n2-c1ccc(C(C)(C)C)cc1 the pIC50 [1] was 5.38, the pEC50 [2] was 7.04 and the pIC50 [3] was 7.74.
CC(C)(C)c1ccc(-n2c(C(=O)O)c(Oc3cccc(C(F)(F)F)c3)c3cc(Oc4cc(C(F)(F)F)ccn4)ccc32)cc1 gave a bioavailability [5] of 2.4%, a pEC50 [2] of 8.22 and a half-life [6] of 48 min.
Molecule CC(C)c1cccc(-n2c(C(=O)O)c(Oc3cccc(O)c3)c3ccccc32)c1 has a pIC50 [1] of under 4.30 and a pIC50 [3] of 6.99.
CC(C)(C)c1ccc(-n2c(C(=O)O)c(Oc3cc(C(F)(F)F)cc(C(F)(F)F)c3)c3cc(Cl)ccc32)cc1 showed a pIC50 [1] of under 4.82 and a pIC50 [3] of 7.08.
With O=C(O)c1c(Oc2cccc(C(F)(F)F)c2)c2ccccc2n1-c1ccc(C(F)(F)F)cc1 the pIC50 [1] was 5.50 and the pIC50 [3] was 6.97.
CC(C)(C)c1ccc(-n2c(C(=O)O)c(Oc3cccc(S(C)(=O)=O)c3)c3ccc(Cl)nc32)cc1 gave a pIC50 [1] of under 4.30 and a pIC50 [3] of 6.69.
For CC(C)(C)c1ccc(-n2c(C(=O)O)c(Oc3cccc(O)c3)c3ccccc32)cc1, the pIC50 [1] was under 4.30, the pEC50 [2] was 6.79 and the pIC50 [3] was 7.11.
CC(C)(C)c1ccc(-n2c(C(=O)O)c(Oc3cccc(C(F)(F)F)c3)c3ccccc32)cc1 gave a pIC50 [1] of 4.98, an AUC [4] of 9.19 µM·h and a pEC50 [2] of 7.89. It also gave a pIC50 [3] of 7.92 and a half-life [6] of 30 min.
In the case of CC(C)(C)c1ccc(-n2c(C(=O)O)c(Oc3ccc(Cl)cc3)c3ccc(OC(F)(F)F)cc32)cc1, the pIC50 [1] was under 4.82, the pEC50 [2] was 6.39 and the pIC50 [3] was 6.53.
For COc1ccc2c(Oc3cccc(C(F)(F)F)c3)c(C(=O)O)n(-c3ccc(C(C)(C)C)cc3)c2n1, the pIC50 [1] was under 4.82, the pEC50 [2] was 6.52 and the pIC50 [3] was 7.00.
Work on COc1cccc(Oc2c(C(=O)O)n(-c3ccc(C(C)(C)C)cc3)c3nc(Cl)ccc23)c1 yielded a pIC50 [1] of under 4.82, a pEC50 [2] of 6.12 and a pIC50 [3] of 6.98.
With CC(C)(C)c1ccc(-n2c(C(=O)O)c(Oc3cccc(C(F)(F)F)c3)c3ccc(Cl)cc32)cc1 the pIC50 [1] was under 4.82, the pEC50 [2] was 6.97 and the pIC50 [3] was 7.57.
In the case of CC(C)c1cccc(Oc2c(C(=O)O)n(-c3ccc(C(C)(C)C)cc3)c3cc(Cl)ccc23)c1, the pIC50 [1] was under 4.82 and the pIC50 [3] was 7.72.
CC(C)(C)c1ccc(-n2c(C(=O)O)c(Oc3ccc(-c4cc(C(F)(F)F)c[nH]4)cc3)c3cccnc32)cc1 showed a pIC50 [1] of under 4.30, a pEC50 [2] of 7.47 and a pIC50 [3] of 6.60.
For CC(C)(C)c1ccc(-n2c(C(=O)O)c(Oc3ccc(OC(F)(F)F)cc3)c3ccccc32)cc1, the pIC50 [1] was 5.45 and the pIC50 [3] was 7.31.
With COc1ccc2c(c1)c(Oc1cccc(C(F)(F)F)c1)c(C(=O)O)n2-c1ccc(C(C)(C)C)cc1 the pIC50 [1] was under 4.82 and the pIC50 [3] was 7.41.
CC(C)(C)c1ccc(-n2c(C(=O)O)c(Oc3ccc(Cl)c(C(F)(F)F)c3)c3cc(Cl)ccc32)cc1 showed a pIC50 [1] of 5.35 and a pIC50 [3] of 7.89.
Molecule CC(C)c1cccc(-n2c(C(=O)O)c(Oc3ccc(C(F)(F)F)cc3)c3ccccc32)c1 has a pIC50 [1] of under 4.82 and a pIC50 [3] of 6.92.
CC(C)(C)c1ccc(-n2c(C(=O)O)c(Oc3cccc(-c4cc(C(F)(F)F)c[nH]4)c3)c3ccc(Cl)nc32)cc1 gave a pIC50 [1] of under 4.30, a pEC50 [2] of 7.02 and a pIC50 [3] of 7.24.
CC(C)(C)c1ccc(-n2c(C(=O)O)c(Oc3cccc(C(F)(F)F)c3)c3ccc(Cl)nc32)cc1 gave a pIC50 [1] of under 4.82, a pEC50 [2] of 6.75 and a pIC50 [3] of 7.68.
With CC(C)(C)c1ccc(-n2c(C(=O)O)c(Oc3cccc(C(F)(F)F)c3)c3cc(Oc4ccccn4)ccc32)cc1 the pEC50 [2] was 6.90.
CC(C)c1cccc(-n2c(C(=O)O)c(Oc3cccc(C(F)(F)F)c3)c3ccccc32)c1 gave a pIC50 [1] of under 4.82 and a pIC50 [3] of 7.22.
For CCOc1cccc(Oc2c(C(=O)O)n(-c3ccc(C(C)(C)C)cc3)c3ccccc23)c1, the pIC50 [1] was under 4.30, the pEC50 [2] was 6.63 and the pIC50 [3] was 7.31.
